In patent US20090203632A1, “COMPOSITIONS AND METHODS FOR TREATING CONTRACTURE” (Angiotech International AG, priority 2004, published 2009):

Test: Water solubility of 5-FU
Assay type: physicochemical
Settings: read-out: measured water solubility
Description: A hyaluronic acid formulation that includes 5-FU can be prepared as described. 5-FU is combined with 10 mg hyaluronic acid (1 MDa), 1 ml sterile water. The product is stirred until a uniform gel solution, free of particular polymer or drug is achieved. Alternatively, the HA and water may be combined, stirred and autoclaved to homogenize the solution. After dissolving the polymer, the 5-FU may be added with stirring. NaCl is added (as required for isotonicity), and the pH is adjusted to between 6-8 with NaOH and HCl as required. […] The formulation may be injected to the site of treatment (e.g., into a joint) in a volume appropriate to that site. For example, a knee joint might receive a 2 ml injection, whereas a finger joint or tendon sheath may receive substantially less.

solubility: 12.9 mg/mL
Structure (SMILES): O=c1[nH]cc(F)c(=O)[nH]1 [Formula 5-FU, 5-Fluorouracil]
